Data published in article PMC11031820, “Structural determinants of the direct inhibition of GIRK channels by Sigma-1 receptor antagonist” (The Journal of Biological Chemistry, 2024).

Tests used:
Assay type in all cases: cell-based
GIRK2 [1] = molecular target: T1, GIRK2 (Mus musculus, UniProt P48542); assay: two-electrode voltage clamp in Xenopus oocytes, GIRK2+Gβγ, […] compound
T1 construct: gene Kcnj6

GIRK4 [2] = molecular target: T2, GIRK4 (Rattus norvegicus, UniProt P48548); assay: two-electrode voltage clamp in Xenopus oocytes, GIRK4+Gβγ, […] compound
T2 construct: gene Kcnj5
T2 sequence (P48548 whole entry): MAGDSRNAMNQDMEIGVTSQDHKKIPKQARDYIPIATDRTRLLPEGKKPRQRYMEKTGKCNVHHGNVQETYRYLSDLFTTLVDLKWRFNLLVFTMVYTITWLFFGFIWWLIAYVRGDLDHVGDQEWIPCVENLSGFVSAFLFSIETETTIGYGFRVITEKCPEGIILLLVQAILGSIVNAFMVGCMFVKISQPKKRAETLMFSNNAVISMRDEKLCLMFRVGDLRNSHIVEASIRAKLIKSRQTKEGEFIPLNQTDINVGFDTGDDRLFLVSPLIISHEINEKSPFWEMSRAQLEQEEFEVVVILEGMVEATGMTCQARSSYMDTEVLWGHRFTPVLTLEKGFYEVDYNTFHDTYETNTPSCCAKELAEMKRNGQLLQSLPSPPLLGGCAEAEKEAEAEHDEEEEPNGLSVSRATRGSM
T2 sequence (P62871 2-340 partner): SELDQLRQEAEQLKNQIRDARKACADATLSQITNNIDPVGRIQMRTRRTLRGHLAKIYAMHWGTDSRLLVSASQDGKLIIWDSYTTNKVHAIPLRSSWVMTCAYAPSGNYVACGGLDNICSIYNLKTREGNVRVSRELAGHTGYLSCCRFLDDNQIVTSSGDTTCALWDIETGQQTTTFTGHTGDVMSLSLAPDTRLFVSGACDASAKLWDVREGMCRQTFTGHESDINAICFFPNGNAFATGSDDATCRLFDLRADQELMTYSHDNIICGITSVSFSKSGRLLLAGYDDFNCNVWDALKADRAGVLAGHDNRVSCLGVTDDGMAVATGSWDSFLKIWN
T2 sequence (P63212 2-68 partner): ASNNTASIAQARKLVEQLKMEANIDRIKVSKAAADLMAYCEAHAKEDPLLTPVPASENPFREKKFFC

GIRK2 [3] = molecular target: T1, GIRK2; assay: two-electrode voltage clamp in Xenopus oocytes, homomeric GIRK2 co-expressed with Gβγ
GIRK2 [4] = molecular target: T3, GIRK2 (Mus musculus, UniProt P48542, I82L); assay: two-electrode voltage clamp in Xenopus oocytes, […] compound
T3 construct: gene Kcnj6
T3 sequence (P48542 whole entry I82L): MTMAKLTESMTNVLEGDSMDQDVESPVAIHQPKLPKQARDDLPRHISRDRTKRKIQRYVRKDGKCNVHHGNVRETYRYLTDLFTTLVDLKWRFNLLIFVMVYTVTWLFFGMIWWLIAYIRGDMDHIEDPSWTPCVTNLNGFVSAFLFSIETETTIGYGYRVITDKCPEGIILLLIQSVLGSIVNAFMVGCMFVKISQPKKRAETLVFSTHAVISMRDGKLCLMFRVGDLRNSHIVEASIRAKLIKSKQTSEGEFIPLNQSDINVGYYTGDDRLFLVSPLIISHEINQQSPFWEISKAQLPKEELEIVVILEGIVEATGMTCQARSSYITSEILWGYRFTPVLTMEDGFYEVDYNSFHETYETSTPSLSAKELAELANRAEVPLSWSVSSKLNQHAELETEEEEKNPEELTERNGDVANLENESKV
T3 sequence (P62871 2-340 partner): as the sequence (P62871 2-340 partner) above
T3 sequence (P63212 2-68 partner): as the sequence (P63212 2-68 partner) above

GIRK4 [5] = molecular target: T4, GIRK4 (Rattus norvegicus, UniProt P48548, E147Q); assay: as above
T4 construct: gene Kcnj5
T4 sequence (P48548 whole entry E147Q): as the sequence (P48548 whole entry) above, with E147Q counted along it
T4 sequence (P62871 2-340 partner): as the sequence (P62871 2-340 partner) above
T4 sequence (P63212 2-68 partner): as the sequence (P63212 2-68 partner) above

GIRK4 [6] = molecular target: T2, GIRK4; assay: two-electrode voltage clamp in Xenopus oocytes, homomeric GIRK4 co-expressed with Gβγ

T1 sequence (P48542 whole entry): as the sequence (P48542 whole entry I82L) above, with L82I counted along it
T1 sequence (P62871 2-340 partner): as the sequence (P62871 2-340 partner) above
T1 sequence (P63212 2-68 partner): as the sequence (P63212 2-68 partner) above

Row | Compound | inhibition at 100 µM (GIRK2 [1]) | inhibition at 100 µM (GIRK4 [2]) | IC50 (GIRK2 [3]) | inhibition at 100 µM (GIRK2 [4]) | two-electrode voltage clamp in Xenopus oocytes, 100 μM compound (GIRK4 [5]) | IC50 (GIRK4 [6])
1 | CN1CCN(CCc2ccc(Cl)c(Cl)c2)CC1 [BD1063] | 31.1 ± 12% | 61.4 ± 2.6% |  |  |  | 
2 | CN(C)CCN(C)CCc1ccc(Cl)c(Cl)c1 [BD1047] |  |  | 75.4 ± 9.7 µM | 61 ± 1.9% | It was observed that GIRK4 E147Q maintained the strong inhibition as WT | 17.4 ± 3.7 µM
